Experimental findings from PubChem BioAssay AID256 (DTP/NCI, 2004) are described below.

Structures are written as SMILES. “And” between values parts separate entries of the source, which are not always exact repeats. Equal entries are not always repeated. Inconclusive results and toxic doses are left out.

This experiment deals with CD2F1 mice, L1210 leukemia ip, survival T/C. Briefly: NCI In Vivo Anticancer Drug Screen. Data for tumor model L1210 Leukemia (intraperitoneal) in CD2F1 (CDF1) mice. As to conditions: endpoint: mean survival time, higher = longer survival. Put shortly: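 Vehicle-treated tumor-bearing mice served as controls (C) for compound-treated mice (T). Reported figure is T divided by C.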

Setting [1] is: dose: 100.0 mg/kg/injection, schedule: Q01DX009 (ip), vehicle: saline with Tween-80.
Setting [2] is: dose: 100.0 mg/kg/injection, schedule: Q04DX003 (ip), vehicle: saline with Tween-80.
[3] abbreviates: dose: 200.0 mg/kg/injection, schedule: Q01DX009 (ip), vehicle: saline with Tween-80.
Where [4] appears, read: dose: 200.0 mg/kg/injection, schedule: Q04DX003 (ip), vehicle: saline with Tween-80.
Setting [5] is: dose: 400.0 mg/kg/injection, schedule: Q01DX009 (ip), vehicle: saline with Tween-80.
[6] abbreviates: dose: 400.0 mg/kg/injection, schedule: Q04DX003 (ip), vehicle: saline with Tween-80.
Where [7] appears, read: dose: 50.0 mg/kg/injection, schedule: Q04DX002 (ip), vehicle: saline with Tween-80.
Setting [8] is: dose: 100.0 mg/kg/injection, schedule: Q04DX002 (ip), vehicle: saline with Tween-80.
[9] abbreviates: dose: 100.0 mg/kg/injection, schedule: Q04DX003 (ip), vehicle: saline.
[10] abbreviates: dose: 200.0 mg/kg/injection, schedule: Q04DX003 (ip), vehicle: saline.
The mark [11] stands for this setting: dose: 400.0 mg/kg/injection, schedule: Q04DX003 (ip), vehicle: saline.
Setting [12] is: dose: 100.0 mg/kg/injection, schedule: Q01DX001 (ip), vehicle: saline with Tween-80.
Setting [13] is: dose: 200.0 mg/kg/injection, schedule: Q01DX001 (ip), vehicle: saline with Tween-80.
Setting [14] is: dose: 400.0 mg/kg/injection, schedule: Q01DX001 (ip), vehicle: saline with Tween-80.

Turning to `COC(=O)C(Br)C(Br)c1ccccc1` (stereo unspecified), the T/C runs as follows: under setting [1], 101 % of control; under setting [2], 103 % of control; under setting [3], 101 % of control; under setting [4], 106 % of control; under setting [5], 95 % of control; under setting [6], 106 % of control.
As for `C=C(CCCCCCCCCCCCCCCC)C(=O)O`, the T/C is, setting by setting: (dose: 25.0 mg/kg/injection, schedule: Q04DX002 (ip), vehicle: saline with Tween-80) 90 % of control; under setting [7], 87 % of control; under setting [8], 94 % of control.
For `O=c1[nH]c(=O)n(C2CC(O)C(CO)O2)cc1/C=N/O` (stereo unspecified), the T/C (dose: 12.5 mg/kg/injection, schedule: Q01DX005 (ip), vehicle: distilled water + Tween-80) was 101 % of control; the T/C (dose: 25.0 mg/kg/injection, schedule: Q01DX005 (ip), vehicle: distilled water + Tween-80) was 103 % of control; the T/C (dose: 50.0 mg/kg/injection, schedule: Q01DX005 (ip), vehicle: distilled water + Tween-80) was 101 % of control; the T/C (dose: 100.0 mg/kg/injection, schedule: Q01DX005 (ip), vehicle: distilled water + Tween-80) is 98 % of control; the T/C (dose: 200.0 mg/kg/injection, schedule: Q01DX005 (ip), vehicle: distilled water + Tween-80) was 101 % of control.
Take `O=C1CC2CCCCC2CO1` (stereo unspecified): the T/C (dose: 75.0 mg/kg/injection, schedule: Q01DX001 (ip), vehicle: saline) was 160 % of control.
Consider `Nc1ccc(N=Nc2ccc(N(CCCl)CCCl)cc2)cc1`, for which the T/C runs as follows: (dose: 33.0 mg/kg/injection, schedule: Q01DX001 (ip), vehicle: Klucel (hydroxypropylcellulose) (HPC)) 96 % of control; (dose: 66.0 mg/kg/injection, schedule: Q01DX001 (ip), vehicle: Klucel (hydroxypropylcellulose) (HPC)) 91 % of control; (dose: 132.0 mg/kg/injection, schedule: Q01DX001 (ip), vehicle: Klucel (hydroxypropylcellulose) (HPC)) 91 % of control.
Regarding `CCN(CC)CCOC(=O)c1ccc(NC(=O)COc2ccc3ccccc3c2)cc1`, the T/C is, setting by setting: (dose: 12.5 mg/kg/injection, schedule: Q01DX009 (ip), vehicle: other) 98 % of control and 97 % of control; (dose: 25.0 mg/kg/injection, schedule: Q01DX009 (ip), vehicle: other) 97 % of control; (dose: 50.0 mg/kg/injection, schedule: Q01DX009 (ip), vehicle: other) 98 % of control and 93 % of control; (dose: 100.0 mg/kg/injection, schedule: Q01DX009 (ip), vehicle: other) 94 % of control and 93 % of control; (dose: 200.0 mg/kg/injection, schedule: Q01DX009 (ip), vehicle: other) 97 % of control and 93 % of control.
Take `CCCCCCCCC(O)CCC` (stereo unspecified): the T/C runs as follows: under setting [9], 96 % of control; under setting [10], 98 % of control; under setting [11], 100 % of control.
For the compound `CSCC(N)C(=O)O` (stereo unspecified), the T/C (dose: 100.0 mg/kg/injection, schedule: Q01DX009 (ip), vehicle: saline) was 103 % of control; the T/C (dose: 200.0 mg/kg/injection, schedule: Q01DX009 (ip), vehicle: saline) was 103 % of control; the T/C (dose: 400.0 mg/kg/injection, schedule: Q01DX009 (ip), vehicle: saline) is 97 % of control.
Turning to `O=C1/C(=C/C2CCC3CCCCC3[N-]2)N2CCC1CC2.[Cl][Co][Cl]` (stereo unspecified), the T/C was 102 % of control (dose: 9.4 mg/kg/injection, schedule: Q04DX003 (ip), vehicle: saline); 100 % of control (dose: 18.8 mg/kg/injection, schedule: Q04DX003 (ip), vehicle: saline); 109 % of control (dose: 37.5 mg/kg/injection, schedule: Q04DX003 (ip), vehicle: saline).
In the case of `CC(=O)Nc1cc(N)cc(-c2ccccc2)c1`, the T/C was 96 % of control and 104 % of control under setting [7]; 94 % of control and 97 % of control under setting [2]; 90 % of control and 94 % of control under setting [4]; 94 % of control and 100 % of control under setting [6].
Take `Cc1c(C)c(C(=O)O)c(C)c(C)c1C(=O)O`: the T/C was 102 % of control under setting [9], 100 % of control under setting [10] and 96 % of control under setting [11].
As for `O=C1CCCN1.O=C1CCCN1.[Br][Co][Br]`, the T/C was 102 % of control (dose: 37.5 mg/kg/injection, schedule: Q01DX009 (ip), vehicle: saline) and 107 % of control (dose: 75.0 mg/kg/injection, schedule: Q01DX009 (ip), vehicle: saline).
As for `COC(=O)CC(=O)C1(C)CC1`, the T/C reads like this: under setting [9], 90 % of control; under setting [10], 93 % of control; under setting [11], 96 % of control.
With `CC1CCCC2(C)CCC(C(C)(C)O)CC12` (stereo unspecified), the T/C is, setting by setting: (dose: 100.0 mg/kg/injection, schedule: Q01DX001 (ip), vehicle: saline) 103 % of control; (dose: 200.0 mg/kg/injection, schedule: Q01DX001 (ip), vehicle: saline) 100 % of control; (dose: 400.0 mg/kg/injection, schedule: Q01DX001 (ip), vehicle: saline) 103 % of control.
On to `COc1ccc(CCl)cc1CCl`, for which the T/C was 102 % of control under setting [2] and 91 % of control under setting [4].
For the compound `O=C(CCl)Nc1ccc(SSc2ccc(NC(=O)CCl)cc2)cc1`, the T/C is, setting by setting: (dose: 25.0 mg/kg/injection, schedule: Q01DX009 (ip), vehicle: Klucel (hydroxypropylcellulose) (HPC)) 95 % of control; (dose: 50.0 mg/kg/injection, schedule: Q01DX009 (ip), vehicle: Klucel (hydroxypropylcellulose) (HPC)) 96 % of control; (dose: 100.0 mg/kg/injection, schedule: Q01DX009 (ip), vehicle: Klucel (hydroxypropylcellulose) (HPC)) 93 % of control.
As for `CC(=O)Nc1cccc(NC(C)=O)n1`, the T/C under setting [1] is 95 % of control, the T/C under setting [3] is 94 % of control and the T/C under setting [5] is 91 % of control.
As for `CCOC(=O)c1ccc(NC(=O)Nc2cccc(NC(C)=O)c2)cc1`, the T/C is 96 % of control (dose: 50.0 mg/kg/injection, schedule: Q01DX001 (ip), vehicle: saline with Tween-80); 87 % of control and 91 % of control (dose: 50.0 mg/kg/injection, schedule: Q01DX009 (ip), vehicle: saline with Tween-80); 90 % of control (dose: 50.0 mg/kg/injection, schedule: Q04DX003 (ip), vehicle: saline with Tween-80); 92 % of control under setting [12]; 87 % of control and 91 % of control under setting [1]; 87 % of control and 90 % of control under setting [8]. Besides, the T/C reads like this: under setting [2], 86 % of control; under setting [13], 96 % of control; under setting [3], 91 % of control; (dose: 200.0 mg/kg/injection, schedule: Q04DX002 (ip), vehicle: saline with Tween-80) 91 % of control; under setting [4], 100 % of control; under setting [14], 92 % of control.
Regarding `Cc1c2ccn(O)cc2c(C)c2c1nc1ccccc12`, the T/C is 110 % of control (dose: 25.0 mg/kg/injection, schedule: Q04DX003 (ip), vehicle: water); 103 % of control (dose: 50.0 mg/kg/injection, schedule: Q04DX003 (ip), vehicle: water); 110 % of control (dose: 100.0 mg/kg/injection, schedule: Q04DX003 (ip), vehicle: water); 105 % of control (dose: 200.0 mg/kg/injection, schedule: Q04DX003 (ip), vehicle: water); 106 % of control (dose: 400.0 mg/kg/injection, schedule: Q04DX003 (ip), vehicle: water).
Take `CCCCCCCCC(=O)c1c(OC)oc(/C=N/Nc2ccccc2)cc1=O`: the T/C was 103 % of control (dose: 4.7 mg/kg/injection, schedule: Q01DX009 (ip), vehicle: Klucel (hydroxypropylcellulose) (HPC)); 103 % of control (dose: 9.38 mg/kg/injection, schedule: Q01DX009 (ip), vehicle: Klucel (hydroxypropylcellulose) (HPC)); 103 % of control (dose: 18.75 mg/kg/injection, schedule: Q01DX009 (ip), vehicle: Klucel (hydroxypropylcellulose) (HPC)); 98 % of control (dose: 37.5 mg/kg/injection, schedule: Q01DX009 (ip), vehicle: Klucel (hydroxypropylcellulose) (HPC)); 92 % of control (dose: 75.0 mg/kg/injection, schedule: Q01DX009 (ip), vehicle: Klucel (hydroxypropylcellulose) (HPC)).
`Cc1ccc(NC(=O)c2cccc(Cl)c2)c(C)c1`: the T/C is 100 % of control under setting [1]; 96 % of control under setting [2]; 94 % of control under setting [3]; 100 % of control under setting [4]; 96 % of control under setting [5]; 93 % of control under setting [6].
As to `CN(C)/C=C1\NC(=S)NC1=O`, the T/C is, setting by setting: under setting [12], 95 % of control; under setting [13], 91 % of control; under setting [14], 91 % of control.
